The source of these data is US8648116B2, “Derivatives of N-(arylamino) sulfonamides including polymorphs as inhibitors of MEK as well as compositions, methods of use and methods for preparing the same” (Ardea Biosciences, Inc., priority 2005, dated 2014).

Data set [1] relates to gastric adenocarcinoma AGS cells. In words: Cell proliferation assay (CellTiterGlo, 3 days and 6 days). The class given is cell-based, human. The settings on record: 3 days and 6 days exposure. The protocol:
Human gastric adenocarcinoma AGS cells were obtained from ATCC (Manassas, Va.). […] For cell proliferation experiments, cells were plated in white 96-well plates with clear bases at 3000 cells/100 μl/well. […] The ATP level for each dose was determined in triplicate using independent wells.
On the technique in general: In ATP-based viability assays light output follows the ATP content of the culture.

For the next data set, the system named is A375 cells. In words: Cytotoxic lysis by adenylate kinase (AK) release, 48 hr. The class given is cell-based, human. The protocol:
Cell supernatants were analyzed for cytotoxic lysis by measuring adenylate kinase (AK) release. […] The lack of AK release was confirmed for all cell lines tested.
100% viability (ATP assay) was determined in vehicle only control wells.

For data set [2] the following is noted: human, in vivo.
The nature of data set [3]: Pharmacokinetics in healthy volunteers following multiple doses. The conditions noted are these: 20 mg.
For a further data set, the system named is SK Mel28 melanoma cells. In words: Anchorage-dependent growth inhibition (ATP content, 48 hr). The data set is classed as cell-based, human. The conditions noted are these: SK Mel 28, separate study.
In data set [4] the test system is MDA-MB231 breast adenocarcinoma cells. The description is as above. The data set is classed as cell-based, human.
A short description of data set [5]: Pharmacokinetics in cancer patients following multiple doses. The conditions noted are these: 6 mg.
In data set [6] the test system is gastric carcinoma Hs746t cells. As to the kind of experiment: Cell proliferation assay (CellTiterGlo, 48 hours). The class given is cell-based, human. The conditions noted are these: 48 hours treatment. The protocol:
Human gastric carcinoma Hs746t cells were obtained from ATCC (Manassas, Va.). […] For cell proliferation experiments, cells were plated in white 96-well plates with clear bases at 3000 cells/100 μl/well.

Data set [7] has as its system carrageenan-induced hind paw edema. In words: Carrageenan-induced paw edema (CPE). The data set is classed as in vivo, Sprague-Dawley rats. The settings on record: 6, 20 & 60 mg/kg orally 2 hr before carrageenan; all dose groups. As to the method:
Compound A (6, 20 & 60 mg/kg) or indomethacin (3 mg/kg) were administered orally 2 hr prior to injection of 1% suspension of carrageenan into the right hind foot pad of male Sprague-Dawley rats (N-6 per treatment group). The hind paw edema was measured 3 hr later by assessing paw volume by plethysmography. Reduction of hind paw edema by 30% or greater indicates significant acute anti-inflammatory activity. Indomethacin (Indo) was used as a positive control drug.
On the technique in general: In the carrageenan paw model, swelling and tenderness develop within hours.

For another data set, the system named is A431 epidermoid tumors. In words: Anti-tumor xenograft activity, TGI and TGD (Example 94). The class given is in vivo, nu/nu mice. The protocol:
(§1) Human tumors were implanted in nu/nu mice. Compound A was administered orally for 14 days once tumors were approximately 100 mm^3 in size. Tumor growth inhibition (TGI) was determined after 14 days of treatment as the reduction in the size of tumors in treated groups versus vehicle controls. The time to endpoint (TTE) was calculated as the time for the tumor to reach the specified endpoint volume or the last day of the study, whichever came first. Treatment outcome was determined from percent tumor growth delay (% TGD), defined as the percent increase in median TTE of treated versus vehicle-treated control mice. Animals were also monitored for regression responses. Levels of pERK in tumors and brain were determined by Western blots and correlated with plasma levels of Compound A for the pharmacodynamic/pharmacokinetic study. A number of tumor models were evaluated with different doses and dosing regimens. […] The effect of different dosing regimens was evaluated in A375 xenografts.
(§2) Female nu/nu mice were implanted with A375 Melanoma, Colo205 Colon Tumor, A431 Epidermoid Tumor or HT-29 Colon Tumor cells, which were allowed to grow to 100-200 mm^3. Compound A or vehicle was administered orally (25 mg/kg, 50 mg/kg or 100 mg/kg), once a day, for 14 days.
(§3) Tumor Growth Inhibition for the groups treated with 25 mg/kg Compound A were calculated for the indicated tumor xenografts. Tumor Growth Inhibition was measured at the end of once daily dosing for 14 days and calculated according to: […]

Data set [8] has as its system Colo205 colon cancer tumors. The data set is described as above. The class given is in vivo, nu/nu mice. As to the method:
as §1, §2, §3

Another data set deals with A431 epidermoid cells. As to the kind of experiment: Anchorage-independent growth inhibition (MTS, 7 days, non-binding plates). The data set is classed as cell-based. The conditions noted are these: Homo sapiens, A-431, 168 h, BRAF Normal, read-out: Anchorage-Independent GI50 (nM ± sd).
The nature of data set [9]: Pharmacokinetic parameters in Balb/c mice (Example 94D). The data set is classed as in vivo. The protocol:
Pharmacokinetic parameters were obtained from dosing Balb/c mice with 25 mg/kg Compound A and extrapolating values for the lower dose groups and shown in the table below.

Data set [10] in a line: Concentration-time profiles after a single dose of capsules. The conditions noted are these: human, in vivo, oral, capsules of example 95A. Also on record: species or system human cancer patients.
The test system of another data set is pERK in Colo205 tumors. In words: MEK inhibition (pERK, Western blot) against plasma concentration, tumor. The class given is in vivo, nu/nu mice. The protocol:
as §1
Female nu/nu mice implanted with Colo205 tumor cells were given a single dose of vehicle or Compound A at 2.5, 5, 10, or 25 mg/kg. Compound levels were determined in plasma samples and pERK levels were determined in tumor and brain samples collected at 2, 6, 12, and 24 hr post-dose. […]
Background: Immunoblotting shows a protein as a band on a membrane.

[11] abbreviates: 2.5 mg/kg, extrapolated from 25 mg/kg in Balb/c mice.
Setting [12] is: 5 mg/kg, extrapolated from 25 mg/kg in Balb/c mice.
Where [13] appears, read: 10 mg/kg, extrapolated from 25 mg/kg in Balb/c mice.

Molecules are shown by their SMILES. Marks after values point to notes of the source that are not given here.

Usually GI50 stands for the concentration that inhibits growth by half. Regarding `COc1cc(F)c(F)c(Nc2ccc(I)cc2F)c1NS(=O)(=O)C1(C[C@H](O)CO)CC1`, the “proliferation of AGS cell line” value in [1] is “inhibits the proliferation”. Moreover, in the data set on A375 cells (1 uM), the “AK, Cell killing, % Control” value was determined as 4%. Besides, the “cytotoxic cell lysis (AK release)” value in the data set with A375 cells (100% cell killing with 20 μM tamoxifen) is listed as “lack of cytotoxic cell lysis”. In [2], this molecule displayed a half-lives of 13 to 15 h. In addition, the “Rac AUCτ (accumulation index)” value is 1.24 in data set [3] and 2.07 in data set [5]. Further, the GI50 was 105 nM in the data set on SK Mel28 melanoma cells and more than 1000 nM in data set [4] (MDA (MDA-MB231), 48 hr, ATP content). Also, the “growth arrest in 2-dimensional anchorage dependent assays” value in data set [4] (MDA-MB231 cells) was “do not show”. The “proliferation of Hs746t cells” value in data set [6] was “inhibits the proliferation”.
What is called AUC is concentration integrated over time. The term Cmax denotes the maximum level reached in the sampled fluid or tissue. The Tmax is the time from dosing to the highest level. One may read the EC50 as the concentration that produces a half-maximal response. Regarding `COc1cc(F)c(F)c(Nc2ccc(I)cc2F)c1NS(=O)(=O)C1(C[C@H](O)CO)CC1` [Compound A], the “hind paw edema (paw volume)” value in data set [7] is on record as “significant anti-inflammatory activity”. Also, the “% TGI” value with A431 epidermoid tumors (A431 Epidermoid xenograft, 25 mg/kg QD oral, 14 days) was 67%; in data set [8] (Colo205 Colon xenograft, 25 mg/kg QD oral, 14 days, range from 2 separate studies), 70-123** %. Further, the “% TGD, significance” value is reported as “statistically significant” in the data set with A431 epidermoid tumors (A431 epidermoid tumors, 25 or 50 mg/kg once daily (QD)) and “statistically significant” in data set [8] (Colo205 colon cancer tumors, 25 or 50 mg/kg once daily (QD)). In the data set on A431 epidermoid cells, the GI50 amounted to 65 ± 19 nM. The AUC was 5500 ng·h/mL in [9] (setting [11]); 11000 ng·h/mL in [9] (setting [12]); 22000 ng·h/mL in data set [9] (setting [13]); 55000 ng·h/mL in data set [9] (mouse, in vivo, oral, 25 mg/kg, Balb/c mice, read-out: AUC); 2.07 ng·h/mL in data set [10] (2 mg dose, Day 35); 5.12 ng·h/mL in data set [10] (4 mg dose, Day 35). The AUC worked out at 14.3 ng·h/mL in data set [10] (10 mg dose, Day 35) and 29.5 ng·h/mL in data set [10] (20 mg dose, Day 35). Also, the Cmax in data set [9] (setting [11]) was 990 ng/mL; in data set [9] (setting [12]) it was 1970 ng/mL; in [9] (setting [13]), 3940 ng/mL; in [9] (mouse, in vivo, oral, 25 mg/kg, Balb/c mice, read-out: Cmax) it was 9850 ng/mL; in data set [10] (2 mg, 2 mg dose, Day 35), 0.202 ng/mL; in [10] (4 mg, 4 mg dose, Day 35), 0.544 ng/mL. Besides, the peak concentration (Cmax) in data set [10] (10 mg, 10 mg dose, Day 35) came to 1.57 ng/mL; in data set [10] (20 mg, 20 mg dose, Day 35) it was 3.28 ng/mL. Moreover, the Cmin was 3 ng/mL in data set [9] (setting [11]); 6 ng/mL in data set [9] (setting [12]); 12 ng/mL in [9] (setting [13]); 29 ng/mL in data set [9] (25 mg/kg, Balb/c mice). Besides, the Tmax in data set [10] (2 mg, 2 mg dose, Day 35) turned out to be 2 h; in data set [10] (4 mg, 4 mg dose, Day 1), 1.5 h; in data set [10] (4 mg, 4 mg dose, Day 35), 1 h. Besides, in the data set with pERK in Colo205 tumors (Colo205 xenografts, pharmacodynamic/pharmacokinetic study), the “pERK formation in tumors” value is reported as “inhibition of pERK formation”. The same molecule registered an EC50 in the data set on pERK in Colo205 tumors (Mus musculus, COLO 205, plasma concentration, Colo205-bearing nu/nu mice, single dose 2.5-25 mg/kg, non-linear regression) of 73 nM.
